Biological target: T1, FAAH (Rattus norvegicus, UniProt P97612)
T1 construct: Preparation of Rat Brain Membranes Preparations (FAAH Enzyme Solution); from tissue; host or cells: rat cerebrum (brain membrane preparation)
T1 sequence (P97612 1-579): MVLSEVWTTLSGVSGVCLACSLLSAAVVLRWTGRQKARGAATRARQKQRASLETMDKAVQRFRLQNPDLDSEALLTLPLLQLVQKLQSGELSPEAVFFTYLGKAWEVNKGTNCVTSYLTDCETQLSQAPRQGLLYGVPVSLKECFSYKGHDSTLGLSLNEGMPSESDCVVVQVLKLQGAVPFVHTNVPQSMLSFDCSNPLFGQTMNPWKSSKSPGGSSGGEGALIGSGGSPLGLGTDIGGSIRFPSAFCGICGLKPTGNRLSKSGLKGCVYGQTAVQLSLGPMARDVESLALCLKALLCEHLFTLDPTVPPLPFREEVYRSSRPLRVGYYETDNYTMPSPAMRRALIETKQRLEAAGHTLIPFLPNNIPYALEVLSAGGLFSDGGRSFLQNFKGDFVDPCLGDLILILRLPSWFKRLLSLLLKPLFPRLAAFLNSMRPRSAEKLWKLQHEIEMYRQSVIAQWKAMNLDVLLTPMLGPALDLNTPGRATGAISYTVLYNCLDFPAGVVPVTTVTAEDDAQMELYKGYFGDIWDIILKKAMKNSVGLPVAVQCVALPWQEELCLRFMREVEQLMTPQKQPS
Test: Determination of FAAH inhibitory activity in rat (rat brain membrane preparations, [3H]-anandamide hydrolysis)
Format: biochemical
Details: rat brain membrane preparations; for inhibition at 0.1 µM: 100 nM test substance, read-out: FAAH Inhibition, Inhibition Rate at 100 nM; for IC50: test substance 0.1 nM to 1 μM, read-out: FAAH Inhibition IC50
Procedure, shortened: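 Rat cerebrum membranes (100 μg/mL protein) preincubated 10 min at 37 °C with compound (1% DMSO) in pH 7.6 Tris buffer with 1.5% BSA. Substrate 2 nM [3H]-anandamide plus 2 μM anandamide added for 10 min at 37 °C. [3H]-ethanolamine in the aqueous phase after chloroform/methanol extraction was scintillation counted; IC50 over 0.1 nM–1 μM.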

| inhibition at 0.1 µM [%] | IC50 [nM] | Compound |
| --- | --- | --- |
| 53 | 95 | Cn1c(=O)n(C(=O)N2CCCC2)c2cnc(-c3cccc(OCc4ccccc4)c3)nc21 [Example 202, 2-(3-benzyloxyphenyl)-9-methyl-7-(pyrrolidin-1-ylcarbonyl)-7,9-dihydro-8H-purine-8-one] |
| 98 | 24 | Cn1c(=O)n(C(=O)N2CCCC2)c2cnc(-c3cccc([N+](=O)[O-])c3)nc21 [Example 203, 2-(3-nitrophenyl)-9-methyl-7-(pyrrolidin-1-ylcarbonyl)-7,9-dihydro-8H-purine-8-one] |
| 98 | 5 | Cn1c(=O)n(C(=O)N2CCCC2)c2cnc(-c3cccnc3)nc21 [Example 205, 9-Methyl-2-(pyridin-3-yl)-7-(pyrrolidin-1-ylcarbonyl)-7,9-dihydro-8H-purine-8-one] |
| 98 | 4 | COc1ccc(-c2ncc3c(n2)n(C)c(=O)n3C(=O)N2CCCC2)cn1 [Example 206, 2-(6-Methoxypyridin-3-yl)-9-methyl-7-(pyrrolidin-1-ylcarbonyl)-7,9-dihydro-8H-purine-8-one] |
| 99 | 6 | Cn1c(=O)n(C(=O)N2CCCC2)c2cnc(-c3ccc(F)nc3)nc21 [Example 207, 2-(6-Fluoropyridine-3-yl)-9-methyl-7-(pyrrolidin-1-ylcarbonyl)-7,9-dihydro-8H-purine-8-one] |
| 100 | 5 | Cn1c(=O)n(C(=O)N2CCCC2)c2cnc(-c3ccncc3)nc21 [Example 213, 9-Methyl-2-(pyridin-4-yl)-7-(pyrrolidin-1-ylcarbonyl)-7,9-dihydro-8H-purine-8-one] |
| 99 | 18 | Cn1c(=O)n(C(=O)N2CCCC2)c2cnc(-c3ccnc(Cl)c3)nc21 [Example 214, 2-(2-Chloropyridin-4-yl)-9-methyl-7-(pyrrolidin-1-ylcarbonyl)-7,9-dihydro-8H-purine-8-one] |
| 98 | 10 | Cn1c(=O)n(C(=O)N2CCCC2)c2cnc(-c3ccnc(F)c3)nc21 [Example 215, 2-(2-Fluoropyridin-4-yl)-9-methyl-7-(pyrrolidin-1-ylcarbonyl)-7,9-dihydro-8H-purine-8-one] |
| 99 | 7 | Cn1c(=O)n(C(=O)N2CCCC2)c2cnc(-c3cc4ccccc4o3)nc21 [Example 216] |
| 99 | 27 | C/C=C/c1ncc2c(n1)n(C)c(=O)n2C(=O)N1CCCC1 [Example 217] |
| 95 | 25 | Cn1c(=O)n(C(=O)N2CCCC2)c2cnc(C3=CCCCC3)nc21 [Example 218, 2-(cyclohexen-1-yl)-9-methyl-7-(pyrrolidin-1-ylcarbonyl)-7,9-dihydro-8H-purine-8-one] |
| 96 | 9 | CCN(C)C(=O)n1c(=O)n(C)c2nc(-c3cccnc3)ncc21 [Example 219, N-Ethyl-N,9-dimethyl-8-oxo-2-(pyridin-3-yl)-8,9-dihydro-7H-purine-7-carboxamide] |
| 105 | 7 | CCN(C)C(=O)n1c(=O)n(C)c2nc(-c3ccncc3)ncc21 [Example 220, N-Ethyl-N,9-dimethyl-8-oxo-2-(pyridin-4-yl)-8,9-dihydro-7H-purine-7-carboxamide] |
| 100 | 4 | CCN(C)C(=O)n1c(=O)n(C)c2nc(-c3ccnc(F)c3)ncc21 [Example 221, N-Ethyl-2-(2-fluoropyridin-4-yl)-N,9-dimethyl-8-oxo-8,9-dihydro-7H-purine-7-carboxamide] |
| 99 | < 1 | CN(CCc1ccc(Cl)cc1)C(=O)n1c(=O)n(C)c2nc(-c3ccnc(F)c3)ncc21 [Example 222, N-[2-(4-Chlorophenyl)ethyl]-2-(2-fluoropyridin-4-yl)-N,9-dimethyl-8-oxo-8,9-dihydro-7H-purine-7-carboxamide] |

Reference: US8735406B2, “8-oxodihydropurine derivative” (Dainippon Sumitomo Pharma Co., Ltd., priority 2009, dated 2014)
